Columns and labels:
[1] = test system: Tfeb promoter (pTFEB-Luc); assay: Tfeb promoter-driven luciferase reporter activity in mouse primary astrocytes; type: cell-based; settings: p(WT)Tfeb-Luc, different doses of aspirin, 4 h
Description: Construction of Mouse Tfeb Promoter-driven Reporter Construct: Mouse genomic DNA isolated from primary mouse astrocytes was used as the template during PCR. The 5′ flanking sequence of the mouse TFEB (−916/+61) gene was isolated by PCR. Primers were designed from gene bank sequences. Tfeb: sense: 5′- acgcgt CCAGGAGCCAGGGACGGGGTACATCTC -3′ (SEQ ID NO.: 11); antisense: 5′- agatct AAGGAGAAACTGAGTCCGGGCAGAAGG -3′ (SEQ ID NO.: 12). The sense primer was tagged with an Mlu1 restriction enzyme site while the antisense primer was tagged with Bgl II. The PCR was performed using an Advantage-2 PCR kit (Clontech) according to the manufacturer's instruction. The resulting fragments were gel purified and ligated into the PGEM-TEasy vector (Promega). These fragments were further subcloned into the PGL-3 Enhancer vector after digestion with corresponding restriction enzymes and verification by sequencing ACGT Inc. DNA Sequencing Services. […]
Assay of Tfeb Promoter-driven Reporter Activity: Cells plated at 50-60% confluence in 12-well plates were cotransfected with 0.25 μg of pTFEB(WT)-Luc, pTFEB(Mu)-Luc and using Lipofectamine Plus (Invitrogen). […] Firefly luciferase activities were analyzed in cell extracts using the Luciferase Assay System kit (Promega) in a TD-20/20 Luminometer (Turner Designs) as described earlier (33, 34).

LAMP2 = LAMP2 protein by Western blot and immunocytochemistry in mouse primary brain cells; type: cell-based; settings: for level of LAMP2 (Western blot): different doses of aspirin
Method: Immunostaining of Cells: Immunocytochemistry was performed as described earlier (29). Briefly, 8 well chamber slides containing mouse primary astrocytes, mouse neurons were cultured to 70-80% confluence were fixed with chilled Methanol (Fisher Scientific, Waltham, MA) overnight, followed by two brief rinses with filtered PBS. Samples were blocked with 2% BSA (Fisher Scientific) in PBS containing Tween 20 (Sigma) and Triton X-100 (Sigma) for 30 min and incubated at room temperature under shaking conditions for 2 hr in PBS containing the following anti-mouse primary antibodies: TFEB (1:1000; Abcam), GFAP, (1:1000; DAKO), LAMP2 (1:500, Abcam), NeuN (1:500, Millipore), and MAP2 (1:200, Millipore). […] Following four 15 minute washes with filtered PBS, cells were incubated for 4-5 min with 4′, 6-diamidino-2-phenylindole (DAPI, 1:10,000; Sigma). The samples were run in an EtOH and Xylene (Fisher) gradient, mounted, and observed under Olympus BX41 fluorescence microscope.
Immunoblotting: Western blotting was conducted as described earlier (31, 32) with modifications. Briefly, cells were scraped in 1× RIPA buffer, protein was measured using Bradford reagent and sodium dodecyl sulfate (SDS) buffer was added and electrophoresed on NuPAGE® Novex® 4-12% Bis-Tris gels (Invitrogen) and proteins transferred onto a nitrocellulose membrane (Bio-Rad) using the Thermo-Pierce Fast Semi-Dry Blotter.
The membrane was then washed for 15 min in TBS plus Tween 20 (TBST) and blocked for 1 hr in TBST containing BSA. Next, membranes were incubated overnight at 4° C. under shaking conditions with the following 1° antibodies; TFEB (1:1000, Abcam), LAMP2 (1:500, Abcam) and β-actin (1:800; Abcam, Cambridge, MA). The next day, membranes were washed in TBST for 1 hr, incubated in 2° antibodies against 1° antibody hosts (all 1:10,000; Jackson ImmunoResearch) for 1 hr at room temperature, washed for one more hour and visualized under the Odyssey® Infrared Imaging System (Li-COR, Lincoln, NE).

Tfeb = assay: TFEB mRNA by semi-quantitative RT-PCR in mouse primary astrocytes; type: cell-based; settings: different concentrations, 5 hr, serum-free
Method: Semi-Quantitative Reverse Transcriptase-Coupled Polymerase Chain Reaction (RT-PCR): Total RNA was isolated from mouse primary astrocytes and human primary astrocytes using RNA-Easy Qiagen (Valencia, CA) kit following manufactures protocol. Semi-quantitative RTPCR was carried out as described earlier (28) using oligo (dT) 12-18 as primer and moloney murine leukemia virus reverse transcriptase (MMLV-RT, Invitrogen) in a 20 μl reaction mixture. The resulting cDNA was appropriately amplified using Promega Master Mix (Madison, WI) and the following primers (Invitrogen) for murine genes: […]
Amplified products were electrophoresed on 2% agarose (Invitrogen) gels and visualized by ethidium bromide (Invitrogen) staining. Glyceraldehyde-3-phosphate dehydrogenase (Gapdh) mRNA was used as a loading control to ascertain that an equivalent amount of cDNA was synthesized from each sample.
Mouse primary astrocytes were incubated with different concentrations (see FIG. 9) of simvastatin and pravastatin (A), (B), cinnamic acid (C), and sodium phenylbutyrate and sodium benzoate (D) for 5 hr. under serum-free condition followed by monitoring the mRNA expression of TFEB by semi-quantitative RT-PCR. Sodium formate (D) was used as a negative control for sodium phenylbutyrate and sodium benzoate.

[2] = at high doses; cited from earlier work
mouse primary astrocytes = assay: LysoTracker staining of mouse primary astrocytes (lysosomal biogenesis); type: cell-based; settings: 24 h
Method: [The procedure below names another cell line; the source lists this cell line under the same test.] LysoTracker Staining: Fibroblasts cultured to 70-80% confluence were subjected to different stimuli under reduced serum (2%) DMEM medium followed by incubation with 75 nM LysoTracker Red DND99 (Invitrogen) for 45 mins. Cells were then washed thoroughly with filtered PBS and mounted on glass slides and viewed under BX41 fluorescence microscope

CC(=O)Oc1ccccc1C(=O)O [aspirin]
Tfeb promoter driven luciferase activity [1]: induced Tfeb promoter driven luciferase activity | level of LAMP2 (Western blot) (LAMP2; PPARα (−/−) astrocytes, 24 h): not PPARα (−/−) | level of LAMP2 (Western blot) (LAMP2; PPARβ (−/−) astrocytes, 24 h): dose-dependently increased the level of LAMP2 | level of LAMP2 (Western blot) (LAMP2; WT astrocytes, 24 h): dose-dependently increased the level of LAMP2 | LAMP2 protein expression (Western blot), time course (LAMP2; astrocytes, 5 μM aspirin, serum-free): time-dependent increase | LAMP2 protein expression (Western blot), dose (LAMP2; astrocytes, aspirin 2 and 5 μM, 24 h): increase in LAMP2 protein expression | TFEB mRNA expression (semi-quantitative RT-PCR) (Tfeb): upregulation of TFEB mRNA expression | toxic effects [2]: gastric ulcers, stomach bleeding, and tinnitus | lysosomal biogenesis (lyso-tracker staining) (mouse primary astrocytes; PPARα (−/−) astrocytes, 5 μM aspirin): not PPARα (−/−) | lysosomal biogenesis (lyso-tracker staining) (mouse primary astrocytes; PPARβ (−/−) astrocytes, 5 μM aspirin): increased lysosomal biogenesis | lysosomal biogenesis (lyso-tracker staining) (mouse primary astrocytes; WT astrocytes, 5 μM aspirin): increased lysosomal biogenesis | lysosomal biogenesis (lyso-tracker staining) (mouse primary astrocytes; astrocytes, aspirin 10 μM, serum-free): not very potent in increasing lysosomal biogenesis | lysosomal biogenesis (lyso-tracker staining) (mouse primary astrocytes; astrocytes, aspirin 2 and 5 μM, serum-free): markedly increased lysosomal biogenesis
